Experimental data taken from US20260325504A1, “Genetically Engineered Human Pituitary Corticotroph Tumor Organoids Exhibit Divergent Responses to Selective Glucocorticoid Receptor Modulators” (Corcept Therapeutics Incorporated, priority 2022, published 2026).
Entries after “also recorded” stand apart in the source; their conditions may differ.

Legend:
Assay type in all cases: cell-based, human
PitNET organoids = assay: ACTH secretion from PitNET (summary)
Method: Sonic Hedgehog (SHH) was withdrawn from the organoid growth media 16 hours prior to treatment. The experimental treatment groups included: vehicle (Veh), mifepristone (500 nM, Selleckchem S2606), GANT61 (5 μM, Stemcell Technologies 73692), ketoconazole (Keto, 10 μM, Selleckchem S1353), pasireotide (Pas, 100 nM, Target Mol TP2207-SB001), octreotide (Oct, 100 nM, Selleckchem P1017), mifepristone plus GANT61, mifepristone plus Keto, mifepristone plus Pas, relacorilant (500 nM, Corcept Therapeutics CORT125134), relacorilant plus Pas, relacorilant plus Oct, or dexamethasone (Dexa, 100 nM, SIGMA S4902). In the combination treatments, cultures were pretreated with the GANT61, Keto, Pas or Oct for 2 hours prior to treatment with mifepristone or Rela. […] The IC50 values used for each hPITO line for each drug were determined based on dose responses (FIG. 12). […]
Organoid conditioned media was collected and ACTH secretion using an ELISA according to the manufacturer's protocol (Novus Biologicals Human ACTH ELISA Kit NBP2-66401). The optical density was measured at a wavelength of 450 nm, and ACTH concentration (pg/mL) was interpolated using a standard curve with a 4-parameter logistic regression analysis using GraphPad Prism (v9.3.1).

iPSC^USP48MV organoids = assay: Nuclear morphometric analysis (nuclear irregularity index), iPSCUSP48MV organoids; settings: 500 nM, 48 h
Method: Nuclear Morphometric Analysis (NMA) using treated organoids was performed based on a published protocol that measures cell viability based on the changes in nuclear morphology of the cells using nuclear stain Hoechst or DAPI [31]. Images of organoid nuclei were analyzed using the ImageJ Nuclear Irregularity Index (NII) plugin for key parameters that included cell area, radius ratio, area box, aspect, and roundness. Using the published spreadsheet template, the NII of each cell was calculated with the following formula: NII=Aspect−Area Box+Radius Ratio+Roundness. The area vs NII of vehicle-treated cells were plotted as a scatter plot using the template and considered as the normal cell nuclei. […] The percentage of cells in each NII classification category were calculated and plotted as a histogram using GraphPad Prism.
(§1) Sonic Hedgehog (SHH) was withdrawn from the organoid growth media 16 hours prior to treatment. […] The IC50 values used for each hPITO line for each drug were determined based on dose responses (FIG. 12). […]

ACTH = assay: Spectral flow cytometry, ACTH positive cells, hPITOs
From the text: 1.3 Generation and Culture of Human PitNET Tissue Organoids (hPITOs)
Patients undergoing planned transsphenoidal surgery for PitNETs were identified in the outpatient neuroendocrinology and neurosurgery clinics and collected by the St. Joseph's Hospital and Barrow Neurological Institute Biobank under the collection protocol PHXA-05TS038, and outcomes data protocol PHXA-0004-72-29 with approval of the Institutional Review Board (IRB) and patient consent. De-identified samples were shipped in collection and transport media (Table 3) to the Zavros laboratory (University of Arizona) for processing within 24 hours of collection. Resected PitNET tissues were washed with Dulbeccos Phosphate Buffered Saline (DPBS) supplemented with 1× Penicillin/Streptomycin, 1× Kanamycin and 1× Amphotericin/Gentamycin, minced into smaller pieces, and incubated with digestion buffer (Dulbecco's Modified Eagle Medium/Nutrient Mixture F-12 (DMEM/F12) supplemented with 0.4% Collagenase 2, 0.1% Hyaluronic Acid, 0.03% Trypsin). The tissue was incubated with Accutase (Thermo Fisher Scientific) for a further 5 minutes, and the cells were pelleted and washed with DPBS supplemented with antibiotics. Dissociated cells were then seeded as Matrigel™ domes in culture dishes and overlaid with growth media (Table 4). Media was replaced every 3 days and organoids were harvested for downstream experiments or passaged after 15 days of culture (FIG. 1B).
as §1

| Structure (SMILES) | ACTH secretion from PitNET organoids (PitNET organoids) | apoptotic cells by nuclear irregularity index (NII) (iPSC^USP48MV organoids) | number of ACTH expressing cells / ACTH (ACTH; hPITO, 48 h, FIGS. 9I, J) | sensitization of organoids to pasireotide (ACTH; CD PitNET tissue derived organoids) |
| --- | --- | --- | --- | --- |
| CC#C[C@]1(O)CC[C@H]2[C@@H]3CCC4=CC(=O)CCC4=C3[C@@H](c3ccc(N(C)C)cc3)C[C@@]21C [mifepristone, 11β-(4-dimethylaminophenyl)-17ß-hydroxy-17α-(1-propynyl)-estra-4,9-dien-3-one] | preferentially induced the expression of SSTR2, ACTH secretion and PitNET organoid proliferation; also recorded: significantly increased ACTH secretion from PitNET both in vivo and in vitro | not observed; also recorded: induces apoptosis in neither the tumor organoid iPSC^USP48MV nor the control organoid iPSC^ctrl | significantly increased the number of ACTH expressing cells | – |
| Cn1cc(S(=O)(=O)N2CCC3=Cc4c(cnn4-c4ccc(F)cc4)C[C@]3(C(=O)c3cc(C(F)(F)F)ccn3)C2)cn1 [relacorilant, (R)-(1-(4-fluorophenyl)-6-((1-methyl-1H-pyrazol-4-yl)sulfonyl)-4,4a,5,6,7,8-hexahydro-1H-pyrazolo[3,4-g]isoquinolin-4a-yl) (4-(trifluoromethyl)pyridin-2-yl) methanone] | without significant stimulation of ACTH secretion; also recorded: without an increase in ACTH secretion | significant expression pattern of nuclear morphology consistent with increased apoptotic cells; also recorded: consistent with increased apoptosis cells | – | sensitizes CD PitNET tissue derived organoids to pasireotide; also recorded: sensitized organoid tumor cells to suppression of ACTH by pasireotide |
